# Tested on: HIV-1 (HIVIIIB) replication in MT2 cell line
# Test: HIV-1 replication in MT2 cell line with and without 30% human serum (viral RT activity in supernatant)
# Assay type: cell-based
# Details: Human immunodeficiency virus 1, MT2 cells, with 30% human serum, average IC50 if tested more than once, read-out: MT2 (HIVIIIB) with HS 30% IC50 range
# Outline: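 Read-out is supernatant reverse transcriptase activity on day 5 post-infection, giving IC50 and IC90. Compounds were titrated in complete medium ± 30% human serum, re-dosed after 3 days, on MT2 cells exposed for 3 h to HIVIIIB at MOI 0.5 then washed.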
row,Compound,IC50
1,"CC(C)C1=C2[C@H]3CC[C@@H]4[C@@]5(C)CC[C@H](OC(=O)CC(C)(C)C(=O)O)C(C)(C)[C@@H]5CC[C@@]4(C)[C@]3(C)CC[C@@]2(NC(=O)c2ccnn2C)CC1=O [19-34, 3β-O-(3′,3′-Dimethylsuccinyl)-17β-(1-methyl-1H-pyrazole-5-amido)-21-oxolup-18-ene]",< 199 nM
2,"CC(C)C1=C2C3CCC4[C@@]5(C)CC[C@H](OC(=O)CC(C)(C)C(=O)O)C(C)(C)C5CC[C@@]4(C)[C@]3(C)CC[C@@]2(NC(=O)OCc2ccccc2)CC1=O (stereo partly drawn) [20-8, 3β-O-(3′,3′-Dimethylsuccinyl)-17β-benzyloxycarbonylamino-21-oxolup-18-ene]",< 199 nM
3,"Cc1nnc(C(=O)N[C@@]23CC[C@]4(C)C(CCC5[C@@]6(C)CC[C@H](OC(=O)[C@H]7CCC[C@@H](C(=O)O)C7)C(C)(C)C6CC[C@]54C)C2=C(C(C)C)C(=O)C3)o1 (stereo partly drawn) [19-81, 3β-O-(cis-Cyclohexane-3′-carboxylic acid-1′-carboxyl)-17β-[(5-methyl-[1,3,4]oxadiazol-2-carbonyl)-amino]-21-oxolup-18-ene]",200 to 999 nM
4,"CC(C)C1=C2C3CCC4[C@@]5(C)CC[C@H](OC(=O)CC(C)(C)C(=O)O)C(C)(C)C5CC[C@@]4(C)[C@]3(C)CC[C@@]2(NC(=O)NCc2cccs2)CC1=O (stereo partly drawn) [17-64, 3β-O-(3′,3′-Dimethylsuccinyl)-17β-[N′-(thiophen-2-ylmethyl)-ureido]-21-oxolup-18-ene]",< 199 nM
5,"CC(C)C1=C2[C@H]3CC[C@@H]4[C@@]5(C)CC[C@H](OC(=O)CC(C)(C)C(=O)O)C(C)(C)[C@@H]5CC[C@@]4(C)[C@]3(C)CC[C@@]2(NC(=O)N2CCN(C(=O)OC(C)(C)C)CC2)CC1=O [17-14, 3β-O-(3′,3′-Dimethylsuccinyl)-17β-[(4-tert-butyloxycarbonyl-piperazine-1-carbonyl)-amino]-21-oxolup-18-ene]",< 199 nM
6,"CC(C)C1=C2C3CCC4[C@@]5(C)CC[C@H](OC(=O)CC(C)(C)C(=O)O)C(C)(C)C5CC[C@@]4(C)[C@]3(C)CC[C@@]2(NC(=O)NC2CCN(C)CC2)CC1=O (stereo partly drawn) [17-30, 3β-O-(3′,3′-Dimethylsuccinyl)-17β-[N′-(1-methyl-piperidin-4-yl)-ureido]-21-oxolup-18-ene]",< 199 nM
7,"CC(C)C1=C2C3CCC4[C@@]5(C)CC[C@H](OC(=O)CC(C)(C)C(=O)O)C(C)(C)C5CC[C@@]4(C)[C@]3(C)CC[C@@]2(NC(=O)NCC2CCCCC2)CC1=O (stereo partly drawn) [17-8, 3β-O-(3′,3′-Dimethylsuccinyl)-17β-[N′-(cyclohexylmethyl)ureido]-21-oxolup-18-ene]",< 199 nM
8,CC(C)C1=C2[C@H]3CC[C@@H]4[C@@]5(C)CC[C@H](OC(=O)CC(C)(C)C(=O)O)C(C)(C)[C@@H]5CC[C@@]4(C)[C@]3(C)CC[C@@]2(NC(=O)[C@H]2CCCN2C)CC1=O [19-55],< 199 nM
9,"CC(C)C1=C2C3CCC4[C@@]5(C)CC[C@H](OC(=O)CC(C)(C)C(=O)O)C(C)(C)C5CC[C@@]4(C)[C@]3(C)CC[C@@]2(NC(=O)OCC2CCCCC2)CC1=O (stereo partly drawn) [20-7, 3β-O-(3′,3′-Dimethylsuccinyl)-17β-cyclohexylmethoxycarbonylamino-21-oxolup-18-ene]",< 199 nM
10,"CC(C)C1=C2[C@H]3CC[C@@H]4[C@@]5(C)CC[C@H](OC(=O)CC(C)(C)C(=O)O)C(C)(C)[C@@H]5CC[C@@]4(C)[C@]3(C)CC[C@@]2(NC(=O)c2cnccn2)CC1=O [19-16, 3β-O-(3′,3′-Dimethylsuccinyl)-17β-(pyrazin-2-yl)amido-21-oxolup-18-ene]",< 199 nM
11,"CC(C)C1=C2C3CCC4[C@@]5(C)CC[C@H](OC(=O)CC(C)(C)C(=O)O)C(C)(C)C5CC[C@@]4(C)[C@]3(C)CC[C@@]2(NC(=O)OC2CCSCC2)CC1=O (stereo partly drawn) [20-14, 3β-O-(3′,3′-Dimethylsuccinyl)-17β-(tetrahydro-thiopyran-4-oxycarbonylamino)-21-oxolup-18-ene]",< 199 nM
12,"CC(C)C1=C2C3CCC4[C@@]5(C)CC[C@H](OC(=O)CC(C)(C)C(=O)O)C(C)(C)C5CC[C@@]4(C)[C@]3(C)CC[C@@]2(NC(=O)OC(C)C2CC2)CC1=O (stereo partly drawn) [20-10, 3β-O-(3′,3′-Dimethylsuccinyl)-17β-(1-cyclopropylethoxycarbonylamino)-21-oxolup-18-ene]",< 199 nM
13,CC(C)C1=C2C3CCC4[C@@]5(C)CC[C@H](OC(=O)CC(C)(C)C(=O)O)C(C)(C)C5CC[C@@]4(C)[C@]3(C)CC[C@@]2(NC(=O)[C@H]2CCCN2C(=O)OC(C)(C)C)CC1=O (stereo partly shown) [19-58],< 199 nM
14,"CC(C)C1=C2[C@H]3CC[C@@H]4[C@@]5(C)CC[C@H](OC(=O)CC(C)(C)C(=O)O)C(C)(C)[C@@H]5CC[C@@]4(C)[C@]3(C)CC[C@@]2(NC(=O)c2ccccc2)CC1=O [19-2, 3β-O-(3′,3% Dimethylsuccinyl)-17β-benzamido-21-oxolup-18-ene]",< 199 nM
15,"CC(C)C1=C2[C@H]3CC[C@@H]4[C@@]5(C)CC[C@H](OC(=O)CC(C)(C)C(=O)O)C(C)(C)[C@@H]5CC[C@@]4(C)[C@]3(C)CC[C@@]2(NC(=O)Nc2ccccn2)CC1=O [17-25, 3β-O-(3′,3′-Dimethylsuccinyl)-17β-(N′-pyridin-2-yl-ureido)-21-oxolup-18-ene]",< 199 nM
16,"Cc1cccc(C(=O)N[C@@]23CC[C@]4(C)[C@H](CC[C@@H]5[C@@]6(C)CC[C@H](OC(=O)CC(C)(C)C(=O)O)C(C)(C)[C@@H]6CC[C@]54C)C2=C(C(C)C)C(=O)C3)c1 [19-44, 3β-O-(3′,3′-Dimethylsuccinyl)-17β-(3-methylbenzamido)-21-oxolup-18-ene]",< 199 nM
17,"CC(C)C1=C2[C@H]3CC[C@@H]4[C@@]5(C)CC[C@H](OC(=O)CC(C)(C)C(=O)O)C(C)(C)[C@@H]5CC[C@@]4(C)[C@]3(C)CC[C@@]2(NC(=O)c2cccc(F)c2)CC1=O [19-12, 3β-O-(3′,3′-Dimethylsuccinyl)-17β-(3-fluorobenzamido)-21-oxolup-18-ene]",< 199 nM
18,"CC(C)C1=C2[C@H]3CC[C@@H]4[C@@]5(C)CC[C@H](OC(=O)CC(C)(C)C(=O)O)C(C)(C)[C@@H]5CC[C@@]4(C)[C@]3(C)CC[C@@]2(NC(=O)c2cncn2C)CC1=O [19-18, 3β-O-(3′,3′-Dimethylsuccinyl)-17β-(1-methyl-1H-imidazole-5-amido)-21-oxolup-18-ene]",< 199 nM
19,"CC(C)C1=C2[C@H]3CC[C@@H]4[C@@]5(C)CC[C@H](OC(=O)CC(C)(C)C(=O)O)C(C)(C)[C@@H]5CC[C@@]4(C)[C@]3(C)CC[C@@]2(NC(=O)c2cnccc2O)CC1=O [19-50, 3β-O-(3′,3′-Dimethylsuccinyl)-17β-(4-hydroxypyridine-3-yl)amido-21-oxolup-18-ene]",< 199 nM

# Same assay, conditions: Human immunodeficiency virus 1, MT2 cells, without human serum, average IC50 if tested more than once, read-out: MT2 (HIVIIIB) IC50 range
row,Compound,IC50
1,"CC(C)C1=C2[C@H]3CC[C@@H]4[C@@]5(C)CC[C@H](OC(=O)CC(C)(C)C(=O)O)C(C)(C)[C@@H]5CC[C@@]4(C)[C@]3(C)CC[C@@]2(NC(=O)c2ccnn2C)CC1=O [19-34, 3β-O-(3′,3′-Dimethylsuccinyl)-17β-(1-methyl-1H-pyrazole-5-amido)-21-oxolup-18-ene]",< 199 nM
2,"CC(C)C1=C2[C@H]3CC[C@@H]4[C@@]5(C)CC[C@H](OC(=O)CC(C)(C)C(=O)O)C(C)(C)[C@@H]5CC[C@@]4(C)[C@]3(C)CC[C@@]2(NC(=O)N2CCN(C(=O)OC(C)(C)C)CC2)CC1=O [17-14, 3β-O-(3′,3′-Dimethylsuccinyl)-17β-[(4-tert-butyloxycarbonyl-piperazine-1-carbonyl)-amino]-21-oxolup-18-ene]",< 199 nM
3,"CC(C)C1=C2C3CCC4[C@@]5(C)CC[C@H](OC(=O)CC(C)(C)C(=O)O)C(C)(C)C5CC[C@@]4(C)[C@]3(C)CC[C@@]2(NC(=O)OCC2CCCCC2)CC1=O (stereo partly drawn) [20-7, 3β-O-(3′,3′-Dimethylsuccinyl)-17β-cyclohexylmethoxycarbonylamino-21-oxolup-18-ene]",< 199 nM
4,"CC(C)C1=C2[C@H]3CC[C@@H]4[C@@]5(C)CC[C@H](OC(=O)CC(C)(C)C(=O)O)C(C)(C)[C@@H]5CC[C@@]4(C)[C@]3(C)CC[C@@]2(NC(=O)c2ccccc2)CC1=O [19-2, 3β-O-(3′,3% Dimethylsuccinyl)-17β-benzamido-21-oxolup-18-ene]",< 199 nM
5,"CC(C)C1=C2[C@H]3CC[C@@H]4[C@@]5(C)CC[C@H](OC(=O)[C@H]6CCC[C@@H](C(=O)O)C6)C(C)(C)[C@@H]5CC[C@@]4(C)[C@]3(C)CC[C@@]2(NC(=O)OC(C)(C)C)CC1=O [14-2, 3β-O-(cis-Cyclohexane-3′-carboxylic acid-1′-carboxyl)-17β-[N-tert-butyloxycarbonyl-amino]-21-oxolup-18-ene]",> 1000 nM
6,"CC(C)C1=C2[C@H]3CC[C@@H]4[C@@]5(C)CC[C@H](OC(=O)CC(C)(C)C(=O)O)C(C)(C)[C@@H]5CC[C@@]4(C)[C@]3(C)CC[C@@]2(NC(=O)CC(C)(C)C(=O)O)CC1=O [19-3, 3β-O,17β-N-bis(3′,3′-dimethylsuccinyl)-21-oxolup-18-ene]",< 199 nM
